In paper PMC11513892, “Discovery of a Series of Macrocycles as Potent Inhibitors of Leishmania Infantum” (Journal of Medicinal Chemistry, 2024):
Like-named read-outs stand apart in the source and are kept apart here.

Columns and labels:
T. b. brucei = test: Growth of T. b. brucei trypomastigotes in axenic culture; assay type: cell-based; conditions: Trypanosoma brucei
Excerpt: (§1) We previously reported the synthesis of a series of macrocycles, including 1 (Figure 2A), designed to investigate how structural features influence molecular chameleonicity.[15],[21] Originating from the structural similarities between 1 and hymenocardine, we investigated 1 in screens for P. falciparum and four kinetoplastid parasites: T. b. brucei, T. b. rhodesiense, T. cruzi, and L. infantum. In the screens, we also included compounds 2 and 3 (Figure 2A), which were obtained from an intermediate late in the synthetic route to 1. Since very few validated protein targets relevant to clearance of parasites are known, phenotypic assays were used to investigate the antiparasitic activity for all five parasites. For malaria, the P. falciparum blood stage 3D7 strain was used to test the three compounds. For the two Trypanosoma brucei species, the reduction in trypomastigote growth in culture medium was determined after the addition of 1–3. For T. cruzi, the intracellular parasite growth in infected human fibroblasts (MRC-5 cell line) was assessed in the presence and absence of the three inhibitors. Similarly, the growth of L. infantum was assessed in infected primary mouse macrophages (PMMs) in the presence and absence of the inhibitors. […] The assays for T. cruzi and L. infantum are complex, i.e., they determine the degree of inhibition of parasitic replication in a mammalian cell line; this complexity may lead to a high variability for some compounds.
(§2) The growth of the P. falciparum blood stage 3D7 strain,[53] the two T. brucei species in axenic cultures,[54]T. cruzi in infected human fibroblasts (MRC-5 cell line),[55] and of L. infantum in infected primary mouse macrophages (PMMs)[56] was determined as previously reported in the presence and absence of inhibitors 1–12.

T. b. rhodesiense = test: Growth of T. b. rhodesiense trypomastigotes in axenic culture; assay type: cell-based, Trypanosoma brucei rhodesiense; conditions: for EC50: Trypanosoma brucei, RHODESIENSE / STIB900, CSV supplement, decimal comma, read-out: EC50 T.b. rhodesiense STIB 900
Excerpt: as §1, §2

[1] = tested on: P. falciparum blood stage 3D7 strain; test: Growth of P. falciparum blood stage 3D7 strain (phenotypic); assay type: cell-based, Plasmodium falciparum; conditions: Figure 2A; for EC50: Plasmodium falciparum, 3D7, mean (SD) from 2 to 14 measurements
Excerpt: as §1, §2

[2] = Kinetic solubility in phosphate buffered saline at pH 7.4; assay type: physicochemical
Description: (§3) The kinetic solubility in phosphate buffered saline at pH 7.4, chromatographic Log D at pH 7.4, cell permeability across a MDCK-MDR1 cell monolayer at pH 7.4, and the clearance in mouse liver microsomes of 1–12 was determined at TCG Lifesciences.

[3] = tested on: primary mouse macrophages (PMMs); test: Host cell cytotoxicity in primary mouse macrophages (PMM); assay type: cell-based; conditions: CSV supplement; decimal comma
[4] = Chromatographic Log D at pH 7.4; assay type: physicochemical; conditions: 1-octanol/PBS pH 7.4, determined by chromatography, mean of two measurements
Description: as §3

[5] = Clearance in human microsomes; assay type: in vitro ADME; conditions: CSV supplement; for microsomal CLint: human, microsomes, read-out: CLint in vitro Human Microsomes
Excerpt: Supplement jm4c01370_si_002.csv, table | column: CLint in vitro Human Microsomes µL/min/mg; t(1/2) min

T. cruzi = test: Intracellular growth of T. cruzi in infected human fibroblasts (MRC-5 cell line); assay type: cell-based; conditions: Trypanosoma cruzi
Excerpt: as §1, §2

L. infantum = test: Growth of L. infantum in infected primary mouse macrophages (PMMs), phenotypic assay; assay type: cell-based, Leishmania infantum; conditions: for EC50: Leishmania infantum, Macrophage
Excerpt: as §1
(§4) The potency of macrocycles 1–12 to inhibit the growth of L. infantum was determined in a phenotypic assay in which the parasite was grown in primary peritoneal mouse macrophages (PMMs). To understand whether the SAR for inhibition of parasitic growth is impacted by low cell permeability, the permeability of compounds 1–12 was determined separately. Madin-Darby canine kidney (MDCK) cells transfected with the human MDR1 (multidrug resistance 1) gene (MDCK-MDR1 cells) were used to determine permeabilities in the apical to basolateral direction (Papp AB) as well as efflux ratios (ERs). […] Lipophilicity (Log D at pH 7.4), aqueous kinetic solubility and mouse liver microsomal metabolism were also determined for 1–12, and are discussed separately (cf. physiochemical properties and ADMET, below).
as §2

[6] = Clearance in mouse liver microsomes; assay type: in vitro ADME; conditions: for microsomal CLint: mouse, liver microsomes
Description: as §3

MRC-5 cells = test: Host cell cytotoxicity in MRC-5 cells; assay type: cell-based, human; conditions: CSV supplement; decimal comma
MDR1 = test: in vitro; assay type: in vitro ADME, canine; conditions: dog; for Papp B→A: MDCK-MDR1, pH 7.4; for Papp A→B: MDCK-MDR1, pH 7.4, Papp AB
Description: as §4, §3

[7] = CSV supplement, decimal comma, read-out: EC50 T.b. brucei Squib 427
[8] = phosphate buffered saline, pH 7.4, CSV supplement, read-out: Kinetic solubility
[9] = phosphate buffered saline, pH 7.4, phosphate buffered saline pH 7.4, assay range 2.5–200 μM, read-out: solubility (kinetic)
[10] = TULAHUEN, MRC5, read-out: EC50 T. cruzi Tulahuen C4 (LacZ)
[11] = Table 1, mean (standard deviation, number of measurements), read-out: EC50 (μM), inhibition of the growth of L. infantum
[12] = CSV supplement, read-out: CLint in vitro Mouse Microsomes
[13] = incubation with mouse liver microsomes, read-out: CLint
[14] = MDCK-MDR1, pH 7.4, ER, efflux ratio (BA/AB)
[15] = MDCK-MDR1, pH 7.4, MDCK MDR1 - pH 7.4 Efflux Ratio
[16] = MRC5, Table S1, mean (SD), 2 to 14 measurements, unit not given in Table S1, read-out: In vitro potency, T. cruzi
[17] = CSV supplement, decimal comma, read-out: EC50 L. infantum MHOM/MA(BE)/67

| Structure (SMILES) | EC50 (T. b. brucei; [7]) | EC50 (T. b. rhodesiense) | potency as inhibitor of P. falciparum (in words) [1] | solubility kinetic [2, 8] | solubility kinetic [2, 9] | PMM Primary Mouse Macrophages (inf-LMPH) (cytotoxicity) [3] | chromatographic logD [4] | t(1/2), Human Microsomes [5] | microsomal CLint [5] | EC50 (T. cruzi; [10]) | EC50 (L. infantum; [11]) | t(1/2), Mouse Microsomes ([6]; CSV supplement) | microsomal CLint [6, 12] | microsomal CLint [6, 13] | MRC-5 cells Human Lung Fibroblast Cells (cytotoxicity) (MRC-5 cells) | Papp B→A (MDR1) | efflux ratio (MDR1; [14]) | efflux ratio (MDR1; [15]) | Papp A→B (MDR1) | EC50 (T. cruzi; [16]) | further results |
| --- | --- | --- | --- | --- | --- | --- | --- | --- | --- | --- | --- | --- | --- | --- | --- | --- | --- | --- | --- | --- | --- |
| CC(=O)Nc1cc2ccc1Oc1ccc(cc1)C[C@H](NC(=O)OC(C)(C)C)C(=O)N[C@@H](Cc1ccccc1)C(=O)NCC2=O [Compound 2] | 37 µM | 29 µM | low or no potency | 101 µg/mL | > 100 µM | >64 µM | 3.2 | 6,1 min | 285 µL/min/mg | 41 µM | 31 µM | 6,0 min | 257 µL/min/mg | 260 µL/min/mg | 50,5 µM | 13.3 ×10⁻⁶ cm/s | 19 | 19.3 | 0.7 ×10⁻⁶ cm/s |  | EC50 [1]: > 25 µM; solubility kinetic ([2]; phosphate buffered saline pH 7.4, assay range 2.5–200 μM, read-out: solubility (kinetic)): 169 µM |
| COc1ccc(C[C@H](NC(=O)OC(C)(C)C)C(=O)N[C@@H](Cc2ccccc2)C(=O)NCC(=O)c2cccc(NC(=O)c3ccccn3)c2)cc1 [Compound 4, tert-Butyl ((S)-3-(4-Methoxyphenyl)-1-oxo-1-(((S)-1-oxo-1-((2-oxo-2-(3-(picolinamido)phenyl)ethyl)amino)-3-phenylpropan-2-yl)amino)propan-2-yl)carbamate] | 32.7 µM | 6.1 µM |  | 4.9 µg/mL | 7.3 µM | >64 µM | 4.7 | <3 min | > 578 µL/min/mg | > 64 µM | 38 µM | <3 min | > 578 µL/min/mg | > 580 µL/min/mg | >64 µM | 2.4 ×10⁻⁶ cm/s |  |  |  | 64 µM | EC50 (T. b. brucei; Table S1, mean (SD), 2 to 14 measurements, unit not given in Table S1, read-out: In vitro potency, T. b. brucei): 33 µM; activity in the L. infantum phenotypic screen (in words) (L. infantum; Table 1): inactive |
| CC(C)(C)OC(=O)N[C@H]1CCc2ccc(cc2)Oc2ccc(cc2NC(=O)c2ccccn2)C(=O)CNC(=O)[C@H](Cc2ccccc2)NC1=O [Compound 5, tert-Butyl ((8S,11S)-8-Benzyl-4,7,10-trioxo-3^2-(picolinamido)-2-oxa-6,9-diaza-1,3(1,4)-dibenzenacyclotridecaphane-11-yl)carbamate] | 7.4 µM | 5.6 µM |  | 1.8 µg/mL | 2.7 µM | >64 µM | 4.8 | <3 min | > 578 µL/min/mg | 18 µM | 17 µM | <3 min | > 578 µL/min/mg | > 580 µL/min/mg | >64 µM | 17.3 ×10⁻⁶ cm/s | 13 | 13.2 | 1.3 ×10⁻⁶ cm/s |  | EC50 (L. infantum; [17]): 16.6 µM; loss in potency compared to 3, L. infantum (L. infantum; relative to compound 3): ~10 fold |
| CC(C)(C)OC(=O)N[C@H]1Cc2ccc(cc2)Oc2ccc(cc2)C(=O)CNC(=O)[C@H](Cc2ccccc2)NC1=O [Compound 1] | 6.1 µM | 6 µM | low or no potency | 24 µg/mL | 44 µM | 48,0 µM | 4 | 3,5 min | 497 µL/min/mg | 14.6 µM | 33 µM | <3 min | > 578 µL/min/mg | > 580 µL/min/mg | >64 µM | 21.4 ×10⁻⁶ cm/s | 4.3 | 4.3 | 5 ×10⁻⁶ cm/s | 15 µM | EC50 [1]: 21 µM; EC50 (T. cruzi; MRC5, Figure 2A, mean (SD) from 2 to 14 measurements, read-out: EC50 T. cruzi): 10 to 30 µM; EC50 (L. infantum; [17]): 32.8 µM |
| CC(C)(C)OC(=O)N[C@H]1Cc2ccc(cc2)Oc2ccc(cc2NC(=O)c2ccccn2)C(=O)CNC(=O)[C@H](c2ccccc2)NC1=O [Compound 9, tert-Butyl ((8S,11S)-4,7,10-Trioxo-8-phenyl-3^2-(picolinamido)-2-oxa-6,9-diaza-1,3(1,4)-dibenzenacyclododecaphane-11-yl)carbamate] | 7.7 µM | 1.9 µM |  | 10.3 µg/mL | 16 µM | >64 µM | 4.4 | 8,8 min | 197 µL/min/mg | 18.9 µM | 6.6 µM | 8,4 min | 206 µL/min/mg | 210 µL/min/mg | >64 µM | 4.2 ×10⁻⁶ cm/s | 9.9 | 9.9 | 0.4 ×10⁻⁶ cm/s | 19 µM | activity as inhibitor of T. b. rhodesiense (in words) (T. b. rhodesiense; text on Table S1): moderately active |
